In US20240254135A1, “POLYPHENOL COMPOUNDS” (Epirium Bio Inc., priority 2022, published 2024):

Assay: Pharmacokinetics: quantitative determination in mice brains (LCMS)
Type: in vivo, C57BL/6 Mice
Settings: mice brain, 10 mg/kg PO single dose, 10% NMP vehicle; for Tmax: C57BL/6, mouse
Experimental: C57BL/6 Mice, Age 7-9 weeks, body weight range 20-25 g were used. The mice were fasted overnight. Mice were dosed once a day for a single day at 10 mg/kg, 10 mg/kg. 6 time-points were used for whole blood. 10% NMP was used as a vehicle. 9 animals were used per treatment, with three groups of three animals each. Group 1 had time points at 15 and 60 minutes, Group 2 had time points at 30 and 120 minutes, and Group 3 had time points at 90 and 240 minutes. An Oral (PO) route was used. Plasma and brain samples were collected (brain sample collected at terminal time point). Plasma was collected through the centrifugation of whole blood at 10,000 rpm for 10 minutes at 4° C. Samples were stored at −80° C. until processing.
1.00 mg/mL in 100% MeOH PP vials (prepared at RT yellow light) at 2-8° C. were used as stock solution. 12.22-50000 ng/mL using 80% MeOH PP vials (prepared at RT yellow light) at 2-8° C. were used as working solution. 0.48-2000 ng/ml (prepared at RT yellow light) was used for the curve range. For Compounds 75b and 78a, 1.00 mg/mL of Compound 79 in 100% methanol Ria vials (Prepared at RT yellow light) was used as IS stock solution, and 60 ng/ml of Compound 79 in 80% methanol (Prepared at RT yellow light) was used as IS working solution. For Compound 76b, 1.00 mg/mL of Compound 44 in 100% methanol Ria vials (Prepared at RT yellow light) was used as IS stock solution, and 60 ng/ml of Compound 44 in 80% methanol (Prepared at RT yellow light) was used as IS working solution. A linear, 1/x2 fit type was used. The injection volume was 15 μL. Mobile Phase A was 0.1% Formic Acid in water at room temperature. Mobile Phase B was 100% methanol at room temperature. R0 wash solution was 80% methanol at room temperature. R^3 wash solution was IPA/MeOH/ACN/water (1:1:1:1) at room temperature. The column was Agilent Eclipse 50*2.1 mm 1.8 μm and the instrument was Shimadzu LC-40 UPLC and AB Sciez 6500+ with LCMS002.
For Compound 75b, 100 mg of brain tissue were weighed, 400 μL of Ice cold PBS was added, and the sample was homogenated using a polytron homogenizer. Before starting the experiment the blade was cleaned with NS, Methanol, Methanol:Water (50:50) followed by NS. Using a pipette with Methanol-rinsed pipette tips, 50 μL of each sample (calibration curve sample, QC samples and blank matrix) was aliquot to labeled 12×75-mm glass tubes. Using Methanol-rinsed pipette tips, 5.0 μL of IS of conc. 60 ng (Compound 79) was added to each standard and samples except Blank. All tubes were mixed on a multi-tube vortex for approximately 30 seconds. 1 ml of Ethyl Acetate was added. All tubes were mixed on a multi-tube vortex for approximately 5 minutes then centrifuged for 10 min at 5,000 rpm, 4° C. The sample was kept in methanol containing dry ice for few seconds to freeze the Aqueous layer (flash freeze method). The upper organic layer was poured from the frozen tubes into the labeled 12×75-mm glass tubes then evaporated to dryness under nitrogen using Liquid Evaporator (30° C., −15 psi, ˜ 10 mins). 200 μl of reconstitution solution (10 mM Ammonium Formate:MeOH (40:60 v/v) was added into each tube, which was then vortexed for 30 seconds and transferred to amber glass injection vials for injection. At the terminal time points, animals were euthanized after blood sample collection. Their skulls were opened and whole brains were separated and collected in previously labeled tubes. The tubes were then immediately transferred into liquid nitrogen container for snap freezing. Later the samples were stored at −80° C.
For Compounds 76b and 78a, 100 mg of brain tissue were weighed, 400 μL of Ice cold PBS was added, and the samples were homogenated using a polytron homogenizer. Before starting the experiment the blade was cleaned with NS, Methanol, Methanol:Water (50:50) followed by NS. […]

Tmax	AUC0-4	Structure (SMILES)
1 h	5.993 hr*g/tissue	Oc1cc(O)c2c(c1)OC(c1ccc(O)c(F)c1)C(O)C2 (single isomer, unassigned) [Compound 76b, 2-(3-fluoro-4-hydroxyphenyl)chromane-3,5,7-triol]
1 h	238.5399 hr*g/tissue	COc1cc(C2Oc3ccccc3CC2O)ccc1F (single isomer, unassigned) [Compound 75b, 2-(4-fluoro-3-methoxyphenyl)chroman-3-ol]
1 h	29.135 hr*g/tissue	Oc1cc(O)c2c(c1)OC(c1ccccc1)C(O)C2 (single isomer, unassigned) [Compound 78a, 2-phenylchromane-3,5,7-triol]
